For this experiment, the system named is 786-0 complex spheroid viability. The experiment can be described thus: Anticancer human tumor 786-0 cell line growth inhibition.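 As to all read-outs here: spheroids exposed to agents for seven days before readout.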 The conditions noted are these: for viability, T/C: stronger effect = lower value. In short, it runs like this:
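Complex spheroids of tumor cells with HUVEC and human MSCs, exposed to iadademstat combined with other agents. Each agent tested in half-log steps from near clinical Cmax (else 10 microM top), DMSO ≤0.25%.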

Setting [1] is: curve of first compound, second compound 0.1 µM.
[2] abbreviates: curve of first compound, second compound 0.316 µM.
[3] abbreviates: curve of first compound, second compound 1 µM.
The mark [4] stands for this setting: curve of first compound, second compound 3.16 µM.
Where [5] appears, read: curve of first compound, second compound 10 µM.

pIC50: −log10 of the molar value. Where “and” joins values, the source holds several entries; their conditions need not be identical. Identical values can stand only once.

As for `COc1cc(C2c3cc4c(cc3C(OC3OC5COC(C)OC5C(O)C3O)C3COC(=O)C23)OCO4)cc(OC)c1O` (stereo not given), the viability, T/C is 103% and 96% (compound 0.00949 µM); 96.4% and 94.6% (compound 0.03 µM); 63.6% and 72.1% (compound 0.0949 µM); 49.5% and 53.4% (compound 0.3 µM); 23.1% and 38.4% (compound 0.949 µM); 11.1% and 21.9% (compound 3 µM). Also, the pIC50 (curve of compound) was 6.62 and 6.40.
On to `Nc1ncn(C2CC(O)C(CO)S2)c(=O)n1` (stereo not given) + NC1CC1c1ccc(-c2cccc(O)c2)cc1, for which the pIC50 under setting [1] was 6.67; the negative logarithm of the IC50 (pIC50) under setting [2] is less than 6.52; the pIC50 under setting [3] is 6.59; the pIC50 under setting [4] was 6.60; the pIC50 under setting [5] was less than 6.52. The viability, T/C is 117% (second compound 0.1 µM, first compound 0.000949 µM); 114% (second compound 0.1 µM, first compound 0.003 µM); 113% (second compound 0.1 µM, first compound 0.00949 µM); 99% (second compound 0.1 µM, first compound 0.03 µM); 81.5% (second compound 0.1 µM, first compound 0.0949 µM); 37.6% (second compound 0.1 µM, first compound 0.3 µM). Besides, the viability, T/C (second compound 0.316 µM, first compound 0.000949 µM) is 116%; the viability, T/C (second compound 0.316 µM, first compound 0.003 µM) is 121%; the viability, T/C (second compound 0.316 µM, first compound 0.00949 µM) was 112%; the viability, T/C (second compound 0.316 µM, first compound 0.03 µM) is 106%; the viability, T/C (second compound 0.316 µM, first compound 0.0949 µM) is 86.8%; the viability, T/C (second compound 0.316 µM, first compound 0.3 µM) was 51%. Moreover, the viability, T/C runs as follows: (second compound 1 µM, first compound 0.000949 µM) 121%; (second compound 1 µM, first compound 0.003 µM) 110%; (second compound 1 µM, first compound 0.00949 µM) 110%; (second compound 1 µM, first compound 0.03 µM) 100%; (second compound 1 µM, first compound 0.0949 µM) 83.2%; (second compound 1 µM, first compound 0.3 µM) 44%. The viability, T/C (second compound 3.16 µM, first compound 0.000949 µM) is 111%; the viability, T/C (second compound 3.16 µM, first compound 0.003 µM) is 109%; the viability, T/C (second compound 3.16 µM, first compound 0.00949 µM) was 102%; the viability, T/C (second compound 3.16 µM, first compound 0.03 µM) is 102%; the viability, T/C (second compound 3.16 µM, first compound 0.0949 µM) is 79.3%; the viability, T/C (second compound 3.16 µM, first compound 0.3 µM) was 44.2%. Besides, the viability, T/C is, setting by setting: (second compound 10 µM, first compound 0.000949 µM) 93.3%; (second compound 10 µM, first compound 0.003 µM) 100%; (second compound 10 µM, first compound 0.00949 µM) 95.1%; (second compound 10 µM, first compound 0.03 µM) 95.2%; (second compound 10 µM, first compound 0.0949 µM) 81.3%; (second compound 10 µM, first compound 0.3 µM) 53.9%.
Take `CC(C)c1c(-c2ccccc2)nc2c(C#N)c[nH]n2c1=O` + NC1CCC(NC2CC2c2ccccc2)CC1: the pIC50 was less than 5.00 under setting [1]; less than 5.00 under setting [2]; less than 5.00 under setting [3]; less than 5.00 under setting [4]; less than 5.00 under setting [5]. The viability, T/C reads like this: (second compound 0.1 µM, first compound 0.0316 µM) 110%; (second compound 0.1 µM, first compound 0.1 µM) 111%; (second compound 0.1 µM, first compound 0.316 µM) 119%; (second compound 0.1 µM, first compound 1 µM) 118%; (second compound 0.1 µM, first compound 3.16 µM) 116%; (second compound 0.1 µM, first compound 10 µM) 112%. Also, the viability, T/C runs as follows: (second compound 0.316 µM, first compound 0.0316 µM) 121%; (second compound 0.316 µM, first compound 0.1 µM) 118%; (second compound 0.316 µM, first compound 0.316 µM) 118%; (second compound 0.316 µM, first compound 1 µM) 116%; (second compound 0.316 µM, first compound 3.16 µM) 115%; (second compound 0.316 µM, first compound 10 µM) 116%. Besides, the viability, T/C reads like this: (second compound 1 µM, first compound 0.0316 µM) 114%; (second compound 1 µM, first compound 0.1 µM) 113%; (second compound 1 µM, first compound 0.316 µM) 113%; (second compound 1 µM, first compound 1 µM) 125%; (second compound 1 µM, first compound 3.16 µM) 112%; (second compound 1 µM, first compound 10 µM) 113%. For the same molecule, the viability, T/C is 111% (second compound 3.16 µM, first compound 0.0316 µM); 107% (second compound 3.16 µM, first compound 0.1 µM); 108% (second compound 3.16 µM, first compound 0.316 µM); 100% (second compound 3.16 µM, first compound 1 µM); 107% (second compound 3.16 µM, first compound 3.16 µM); 103% (second compound 3.16 µM, first compound 10 µM). For the same molecule, the viability, T/C (second compound 10 µM, first compound 0.0316 µM) was 92.7%; the viability, T/C (second compound 10 µM, first compound 0.1 µM) was 95.3%; the viability, T/C (second compound 10 µM, first compound 0.316 µM) is 95.2%; the viability, T/C (second compound 10 µM, first compound 1 µM) is 98.8%; the viability, T/C (second compound 10 µM, first compound 3.16 µM) is 88.1%; the viability, T/C (second compound 10 µM, first compound 10 µM) is 84.9%.
Take `Nc1ncn(C2CC(O)C(CO)O2)c(=O)n1` (stereo not given): the viability, T/C reads like this: (compound 0.00316 µM) 101% and 107%; (compound 0.01 µM) 92.9% and 108%; (compound 0.0316 µM) 87.4% and 97.4%; (compound 0.1 µM) 77.8% and 93.8%; (compound 0.316 µM) 68.4% and 82.3%; (compound 1 µM) 53.7% and 76.3%. Where the note is “curve of compound”, the pIC50 is less than 6.00.
On to `O=C(C=Cn1cnc(-c2cc(C(F)(F)F)cc(C(F)(F)F)c2)n1)NNc1cnccn1`, for which the viability, T/C is 90.7% and 92.3% (compound 0.00316 µM); 61.1% and 63.3% (compound 0.01 µM); 39.5% and 47.2% (compound 0.0316 µM); 29% and 39.9% (compound 0.1 µM); 20.6% and 32.5% (compound 0.316 µM); 15.3% and 25.6% (compound 1 µM). For the same molecule, the pIC50 (curve of compound) was 7.73 and 7.56.
Regarding `Nc1ccccc1NC(=O)c1ccc(CNC(=O)OCc2cccnc2)cc1`, the viability, T/C by setting is: (compound 0.00949 µM) 98.3% and 104%; (compound 0.03 µM) 103% and 113%; (compound 0.0949 µM) 102% and 108%; (compound 0.3 µM) 93.9% and 93.5%; (compound 0.949 µM) 68% and 73.5%; (compound 3 µM) 14.8% and 23%. Under “curve of compound”, the pIC50 is 5.85 and 5.79.
As to `COc1ccc([C@@H](O)c2cc(-c3ncnc4cc(N5CCOCC5)ccc34)c(F)cc2Cl)nn1`, the viability, T/C (compound 0.0316 µM) is 105% and 102%; the viability, T/C (compound 0.1 µM) was 105% and 103%; the viability, T/C (compound 0.316 µM) was 107% and 99.3%; the viability, T/C (compound 1 µM) is 94.2% and 89.3%; the viability, T/C (compound 3.16 µM) is 66.3% and 59.2%; the viability, T/C (compound 10 µM) was 42.8% and 42.1%. Besides, under “curve of compound”, the pIC50 was 5.15 and 5.23.

Values taken from PubChem BioAssay AID1918944 (Molecular Pharmacology Branch, DTP, NCI, 2023).
